Laboratory results from patent publication US12264156B2, “Compounds and pharmaceutical compositions thereof for the treatment of diseases” (GALAPAGOS NV, priority 2018, dated 2025).

What was measured:
Type in all cases: biochemical
Conditions in all cases: ADP-Glo SIK kinase assay
SIK1 = target: T1, SIK1 (Homo sapiens, UniProt P57059); assay: ADP-Glo kinase assay, SIK1
T1 construct: purchased Carna Biosciences 02-131
Summary of the method: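 Wells with 1% DMSO or 10 μM staurosporine (final) define the control window. The kinase reaction with substrate and ATP runs 120 min at RT, followed by ADP-Glo detection: ATP depletion (40 min) and ADP-derived luminescence (30 min).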

SIK2 = target: T2, SIK2 (Homo sapiens, UniProt Q9H0K1); assay: ADP-Glo kinase assay, SIK2
T2 construct: purchased ThermoFisher Scientific PV4792
Summary of the method: (§1)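 ADP-Glo, RT throughout. Enz/substrate + ATP, 120 min; ADP-Glo reagent 40 min (ATP depletion); detection reagent 30 min; luminescence read. Neg ctrl 1% DMSO, pos ctrl 10 μM staurosporine, final concs.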

SIK3 = target: T3, SIK3 (Homo sapiens, UniProt Q9Y2K2); assay: ADP-Glo kinase assay, SIK3
T3 construct: purchased SignalChem S12-11G-100
Summary of the method: as §1

T1 sequence (P57059 whole entry): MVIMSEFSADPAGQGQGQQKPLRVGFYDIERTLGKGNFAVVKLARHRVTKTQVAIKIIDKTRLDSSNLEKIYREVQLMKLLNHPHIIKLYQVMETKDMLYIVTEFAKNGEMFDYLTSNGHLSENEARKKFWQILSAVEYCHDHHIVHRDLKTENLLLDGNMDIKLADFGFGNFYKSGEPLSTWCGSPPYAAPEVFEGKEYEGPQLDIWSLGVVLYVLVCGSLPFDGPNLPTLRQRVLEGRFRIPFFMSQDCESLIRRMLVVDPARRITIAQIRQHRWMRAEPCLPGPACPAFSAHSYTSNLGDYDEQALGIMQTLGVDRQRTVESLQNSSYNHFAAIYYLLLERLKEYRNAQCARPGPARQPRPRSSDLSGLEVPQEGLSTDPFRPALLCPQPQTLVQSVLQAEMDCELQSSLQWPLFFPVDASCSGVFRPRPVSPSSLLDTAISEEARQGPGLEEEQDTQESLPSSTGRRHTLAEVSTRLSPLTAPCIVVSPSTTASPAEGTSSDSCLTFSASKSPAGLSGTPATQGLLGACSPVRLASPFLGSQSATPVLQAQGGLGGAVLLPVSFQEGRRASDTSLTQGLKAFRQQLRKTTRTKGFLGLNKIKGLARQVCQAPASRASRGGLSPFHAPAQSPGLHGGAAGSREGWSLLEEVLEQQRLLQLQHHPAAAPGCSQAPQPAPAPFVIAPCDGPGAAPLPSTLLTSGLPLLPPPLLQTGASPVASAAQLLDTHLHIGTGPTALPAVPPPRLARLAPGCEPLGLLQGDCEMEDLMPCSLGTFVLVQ
T3 sequence (Q9Y2K2 whole entry): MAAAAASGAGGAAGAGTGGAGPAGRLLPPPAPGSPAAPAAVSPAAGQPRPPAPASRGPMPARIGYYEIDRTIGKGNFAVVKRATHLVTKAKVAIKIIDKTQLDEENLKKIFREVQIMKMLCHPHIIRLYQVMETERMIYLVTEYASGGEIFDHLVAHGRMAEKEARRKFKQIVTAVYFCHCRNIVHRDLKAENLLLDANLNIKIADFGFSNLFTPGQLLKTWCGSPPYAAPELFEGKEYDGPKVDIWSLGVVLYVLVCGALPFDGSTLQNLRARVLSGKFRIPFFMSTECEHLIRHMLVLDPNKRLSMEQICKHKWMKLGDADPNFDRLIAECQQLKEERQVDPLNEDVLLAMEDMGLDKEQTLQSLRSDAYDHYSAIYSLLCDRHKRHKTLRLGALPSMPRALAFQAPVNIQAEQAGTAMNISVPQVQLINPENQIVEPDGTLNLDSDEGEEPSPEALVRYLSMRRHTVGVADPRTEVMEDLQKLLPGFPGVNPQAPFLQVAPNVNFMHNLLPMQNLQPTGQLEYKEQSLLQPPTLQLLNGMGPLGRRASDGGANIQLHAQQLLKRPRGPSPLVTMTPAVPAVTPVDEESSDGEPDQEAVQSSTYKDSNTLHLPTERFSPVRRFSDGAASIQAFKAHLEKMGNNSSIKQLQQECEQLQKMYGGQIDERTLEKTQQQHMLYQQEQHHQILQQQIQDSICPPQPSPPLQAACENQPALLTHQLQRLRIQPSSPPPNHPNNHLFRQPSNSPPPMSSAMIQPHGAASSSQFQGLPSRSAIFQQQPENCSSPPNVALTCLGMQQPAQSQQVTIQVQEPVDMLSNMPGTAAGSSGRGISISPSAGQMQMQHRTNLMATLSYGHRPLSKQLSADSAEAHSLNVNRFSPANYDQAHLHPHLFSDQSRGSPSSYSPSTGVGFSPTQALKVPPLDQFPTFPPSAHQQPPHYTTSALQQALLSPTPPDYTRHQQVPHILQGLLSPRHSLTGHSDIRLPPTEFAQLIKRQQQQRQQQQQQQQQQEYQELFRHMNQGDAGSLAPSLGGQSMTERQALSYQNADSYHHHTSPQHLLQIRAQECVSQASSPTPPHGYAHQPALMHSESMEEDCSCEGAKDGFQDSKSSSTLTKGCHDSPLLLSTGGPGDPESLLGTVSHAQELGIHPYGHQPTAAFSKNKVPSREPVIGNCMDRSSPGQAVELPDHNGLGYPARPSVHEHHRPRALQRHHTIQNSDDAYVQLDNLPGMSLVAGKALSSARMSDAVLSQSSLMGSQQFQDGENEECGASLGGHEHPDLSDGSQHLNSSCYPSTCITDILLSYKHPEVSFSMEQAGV
T2 sequence (Q9H0K1 whole entry): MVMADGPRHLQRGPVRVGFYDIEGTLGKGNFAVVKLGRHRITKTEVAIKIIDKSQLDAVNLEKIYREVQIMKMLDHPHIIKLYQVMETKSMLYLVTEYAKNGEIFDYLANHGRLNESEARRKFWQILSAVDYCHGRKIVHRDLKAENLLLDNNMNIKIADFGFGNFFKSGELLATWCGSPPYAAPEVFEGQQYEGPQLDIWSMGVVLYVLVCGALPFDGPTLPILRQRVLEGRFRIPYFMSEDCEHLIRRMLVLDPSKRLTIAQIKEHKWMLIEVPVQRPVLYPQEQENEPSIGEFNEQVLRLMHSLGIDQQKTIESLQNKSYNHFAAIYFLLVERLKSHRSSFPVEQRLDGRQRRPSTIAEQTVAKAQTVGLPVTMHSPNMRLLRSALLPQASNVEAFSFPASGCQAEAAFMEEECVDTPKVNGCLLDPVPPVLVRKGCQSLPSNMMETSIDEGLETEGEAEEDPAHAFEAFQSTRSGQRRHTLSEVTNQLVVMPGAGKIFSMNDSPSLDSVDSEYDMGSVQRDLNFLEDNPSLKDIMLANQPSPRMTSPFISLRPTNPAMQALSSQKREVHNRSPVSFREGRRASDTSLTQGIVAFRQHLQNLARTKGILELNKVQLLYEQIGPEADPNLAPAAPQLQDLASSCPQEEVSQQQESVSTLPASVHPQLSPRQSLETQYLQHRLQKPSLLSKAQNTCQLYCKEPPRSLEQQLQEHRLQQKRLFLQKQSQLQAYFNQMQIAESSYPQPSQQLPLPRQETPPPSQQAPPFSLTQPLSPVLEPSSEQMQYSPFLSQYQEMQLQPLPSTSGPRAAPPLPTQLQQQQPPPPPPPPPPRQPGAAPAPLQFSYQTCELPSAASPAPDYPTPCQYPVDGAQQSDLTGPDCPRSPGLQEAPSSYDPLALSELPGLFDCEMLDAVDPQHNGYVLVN

`COc1cc(-c2cnc3cc(OCCNc4ccncn4)ccn23)cc(OC(F)F)c1C(=O)NC1CC1` [compound 369, N-cyclopropyl-2-(difluoromethoxy)-6-methoxy-4-[7-[2-(pyrimidin-4-ylamino)ethoxy]imidazo [1,2-a]pyridin-3-yl]benzamide] was tested, and the IC50 (SIK1) was 0.01 to 10 nM, the IC50 (SIK2) was 0.01 to 10 nM and the IC50 (SIK3) was 0.01 to 10 nM.

With `COc1cc(-c2cnc3cc(OC4CCN(C)C4)ccn23)cc(OC(F)F)c1C(=O)NC1CC1` (stereo not drawn) [compound 15, N-cyclopropyl-2-(difluoromethoxy)-6-methoxy-4-[7-(1-methylpyrrolidin-3-yl)oxyimidazo[1,2-a]pyridin-3-yl]benzamide] the IC50 (SIK1) was greater than 500 nM, the IC50 (SIK2) was 10 to 100 nM and the IC50 (SIK3) was 10 to 100 nM.

`COc1cc(-c2cnc3cc(OCC4CCC4)ccn23)cc(OC(F)F)c1C(=O)NC1CC1` [Cpd 71, 4-[7-(cyclobutylmethoxy)imidazo[1,2-a]pyridin-3-yl]-N-cyclopropyl-2-(difluoromethoxy)-6-methoxy-benzamide] showed an IC50 (SIK1) of 0.01 to 10 nM, an IC50 (SIK2) of 0.01 to 10 nM and an IC50 (SIK3) of 0.01 to 10 nM.

With `COc1cc(-c2cnc3cc(OCC(C)(C)N(C)C)ccn23)cc(OC(F)F)c1C(=O)NC1CC1` [compound 106, N-cyclopropyl-2-(difluoromethoxy)-4-[7-[2-(dimethylamino)-2-methyl-propoxy]imidazo[1,2-a]pyridin-3-yl]-6-methoxy-benzamide] the IC50 (SIK1) was greater than 500 nM, the IC50 (SIK2) was 10 to 100 nM and the IC50 (SIK3) was 10 to 100 nM.

In the case of `COc1cc(-c2cnc3cc(OCCN4CCOC(C#N)C4)ccn23)cc(OC(F)F)c1C(=O)NC1CC1` (stereo not drawn) [compound 213, 4-[7-[2-(2-cyanomorpholin-4-yl)ethoxy]imidazo[1,2-a]pyridin-3-yl]-N-cyclopropyl-2-(difluoromethoxy)-6-methoxy-benzamide], the IC50 (SIK1) is reported as 10 to 100 nM, the IC50 (SIK2) is reported as 0.01 to 10 nM and the IC50 (SIK3) is reported as 0.01 to 10 nM.

`COc1cc(-c2cnc3cc(OCCCN4CCn5cccc5C4)ccn23)cc(OC(F)F)c1C(=O)NC1CC1` [compound 310, N-cyclopropyl-2-(difluoromethoxy)-4-[7-[3-(3,4-dihydro-1H-pyrrolo[1,2-a]pyrazin-2-yl)propoxy]imidazo[1,2-a]pyridin-3-yl]-6-methoxy-benzamide] showed an IC50 (SIK1) of 10 to 100 nM, an IC50 (SIK2) of 0.01 to 10 nM and an IC50 (SIK3) of 0.01 to 10 nM.

With `COc1cc(-c2cnc3cc(OCCCN4CC(C(=O)OC(C)(C)C)C4)ccn23)cc(OC(F)F)c1C(=O)NC1CC1` [compound 391, tert-butyl 1-[3-[3-[4-(cyclopropylcarbamoyl)-3-(difluoromethoxy)-5-methoxy-phenyl]imidazo[1,2-a]pyridin-7-yl]oxypropyl]azetidine-3-carboxylate] the IC50 (SIK1) was 10 to 100 nM, the IC50 (SIK2) was 0.01 to 10 nM and the IC50 (SIK3) was 0.01 to 10 nM.

For `CCOc1ccn2c(-c3cc4c(c(OC)c3)C(=O)N(CC(F)(F)F)CC4)cnc2c1` [Cpd 264, 6-(7-ethoxyimidazo[1,2-a]pyridin-3-yl)-8-methoxy-2-(2,2,2-trifluoroethyl)-3,4-dihydroisoquinolin-1-one], the IC50 (SIK1) was 100 to 500 nM, the IC50 (SIK2) was 10 to 100 nM and the IC50 (SIK3) was 0.01 to 10 nM.

`COc1cc(-c2cnc3cc(OCCN4CCCC4=O)ccn23)cc(OC(F)F)c1C(=O)NC1CC1` [compound 63, N-cyclopropyl-2-(difluoromethoxy)-6-methoxy-4-[7-[2-(2-oxopyrrolidin-1-yl)ethoxy]imidazo[1,2-a]pyridin-3-yl]benzamide] showed an IC50 (SIK1) of 0.01 to 10 nM, an IC50 (SIK2) of 0.01 to 10 nM and an IC50 (SIK3) of 0.01 to 10 nM.

`COc1cc(-c2cnc3cc(OCC4CCCN4C)ccn23)cc(OC(F)F)c1C(=O)NC1CC1` (stereo not drawn) [compound 28, N-cyclopropyl-2-(difluoromethoxy)-6-methoxy-4-[7-[(1-methylpyrrolidin-2-yl)methoxy]imidazo[1,2-a]pyridin-3-yl]benzamide] showed an IC50 (SIK1) of 100 to 500 nM, an IC50 (SIK2) of 0.01 to 10 nM and an IC50 (SIK3) of 0.01 to 10 nM.

`COc1cc(-c2cnc3cc(OCCN(C)c4ccccn4)ccn23)cc(OC(F)F)c1C(=O)NC1CC1` [Cpd 183, N-cyclopropyl-2-(difluoromethoxy)-6-methoxy-4-[7-[2-[methyl(2-pyridyl)amino]ethoxy]imidazo[1,2-a]pyridin-3-yl]benzamide] was tested, and the IC50 (SIK1) was 0.01 to 10 nM, the IC50 (SIK2) was 0.01 to 10 nM and the IC50 (SIK3) was 0.01 to 10 nM.

`COc1cc(-c2cnc3cc(OCc4ccccc4)ccn23)cc(OC(F)F)c1C(=O)NC1CC1` [compound 68, 4-(7-benzyloxyimidazo[1,2-a]pyridin-3-yl)-N-cyclopropyl-2-(difluoromethoxy)-6-methoxy-benzamide] gave an IC50 (SIK1) of 0.01 to 10 nM, an IC50 (SIK2) of 0.01 to 10 nM and an IC50 (SIK3) of 0.01 to 10 nM.

`COc1cc(-c2cnc3cc(OCC(O)CN4CC[C@@H](O)C4)ccn23)cc(OC(F)F)c1C(=O)NC1CC1` (stereo partly drawn) [compound 376, N-cyclopropyl-2-(difluoromethoxy)-4-[7-[2-hydroxy-3-[(3R)-3-hydroxypyrrolidin-1-yl]propoxy]imidazo[1,2-a]pyridin-3-yl]-6-methoxy-benzamide] gave an IC50 (SIK1) of 10 to 100 nM, an IC50 (SIK2) of 0.01 to 10 nM and an IC50 (SIK3) of 0.01 to 10 nM.

Work on `COc1cc(-c2cnc3cc(OCC4COCCO4)ccn23)cc(OC(F)F)c1C(=O)NC1CC1` (stereo not drawn) [compound 98, N-cyclopropyl-2-(difluoromethoxy)-4-[7-(1,4-dioxan-2-ylmethoxy)imidazo[1,2-a]pyridin-3-yl]-6-methoxy-benzamide] yielded an IC50 (SIK1) of 10 to 100 nM, an IC50 (SIK2) of 0.01 to 10 nM and an IC50 (SIK3) of 0.01 to 10 nM.

Work on `COc1cc(-c2cnc3cc(OCCO)ccn23)cc(OC(F)F)c1C(=O)NC1CC1` [compound 30, N-cyclopropyl-2-(difluoromethoxy)-4-[7-(2-hydroxyethoxy)imidazo [1,2-a]pyridin-3-yl]-6-methoxy-benzamide] yielded an IC50 (SIK1) of 10 to 100 nM, an IC50 (SIK2) of 0.01 to 10 nM and an IC50 (SIK3) of 0.01 to 10 nM.

`COc1cc(-c2cnc3cc(OCC4CCCNC4)ccn23)cc(OC(F)F)c1C(=O)NC1CC1` (stereo not drawn) [compound 143, N-cyclopropyl-2-(difluoromethoxy)-6-methoxy-4-[7-(3-piperidylmethoxy)imidazo[1,2-a]pyridin-3-yl]benzamide] gave an IC50 (SIK1) of 0.01 to 10 nM, an IC50 (SIK2) of 0.01 to 10 nM and an IC50 (SIK3) of 0.01 to 10 nM.

`COc1cc(-c2cnc3cc(OCCCN4CCc5nc(C)sc5C4)ccn23)cc(OC(F)F)c1C(=O)NC1CC1` [compound 320, N-cyclopropyl-2-(difluoromethoxy)-6-methoxy-4-[7-[3-(2-methyl-6,7-dihydro-4H-thiazolo[5,4-c]pyridin-5-yl)propoxy]imidazo[1,2-a]pyridin-3-yl]benzamide] showed an IC50 (SIK1) of 10 to 100 nM, an IC50 (SIK2) of 0.01 to 10 nM and an IC50 (SIK3) of 0.01 to 10 nM.

Molecule `COc1cc(-c2cnc3cc(OCC4CCCCC4)ccn23)cc(OC(F)F)c1C(=O)NC1CC1` [compound 69, 4-[7-(cyclohexylmethoxy)imidazo[1,2-a]pyridin-3-yl]-N-cyclopropyl-2-(difluoromethoxy)-6-methoxy-benzamide] has an IC50 (SIK1) of 10 to 100 nM, an IC50 (SIK2) of 0.01 to 10 nM and an IC50 (SIK3) of 0.01 to 10 nM.

In the case of `COc1cc(-c2cnc3cc(OCCN4CCC(F)(F)CC4)ccn23)cc(OC(F)F)c1C(=O)NC1CC1` [Cpd 181, N-cyclopropyl-2-(difluoromethoxy)-4-[7-[2-(4,4-difluoro-1-piperidyl)ethoxy]imidazo [1,2-a]pyridin-3-yl]-6-methoxy-benzamide], the IC50 (SIK1) is reported as 10 to 100 nM, the IC50 (SIK2) is reported as 0.01 to 10 nM and the IC50 (SIK3) is reported as 0.01 to 10 nM.

Molecule `COc1cc(-c2cnc3cc(OCCCN4CCOCC45COC5)ccn23)cc(OC(F)F)c1C(=O)NC1CC1` [compound 296, N-cyclopropyl-2-(difluoromethoxy)-4-[7-[3-(2,8-dioxa-5-azaspiro[3.5]nonan-5-yl)propoxy]imidazo[1,2-a]pyridin-3-yl]-6-methoxy-benzamide] has an IC50 (SIK1) of 10 to 100 nM, an IC50 (SIK2) of 0.01 to 10 nM and an IC50 (SIK3) of 0.01 to 10 nM.

`COc1cc(-c2cnc3cc(OCC4CCCN4C(C)C)ccn23)cc(OC(F)F)c1C(=O)NC1CC1` (stereo not drawn) [compound 295, N-cyclopropyl-2-(difluoromethoxy)-4-[7-[(1-isopropylpyrrolidin-2-yl)methoxy]imidazo[1,2-a]pyridin-3-yl]-6-methoxy-benzamide] showed an IC50 (SIK1) of 100 to 500 nM, an IC50 (SIK2) of 0.01 to 10 nM and an IC50 (SIK3) of 0.01 to 10 nM.

With `COc1cc(-c2cnc3cc(OCCC#N)ccn23)cc(OC(F)F)c1C(=O)NC1CC1` [compound 31, 4-[7-(2-cyanoethoxy)imidazo[1,2-a]pyridin-3-yl]-N-cyclopropyl-2-(difluoromethoxy)-6-methoxy-benzamide] the IC50 (SIK1) was greater than 500 nM, the IC50 (SIK2) was greater than 500 nM and the IC50 (SIK3) was greater than 500 nM.

`COc1cc(-c2cnc3cc(OCC(N)C(C)C)ccn23)cc(OC(F)F)c1C(=O)NC1CC1` (stereo not drawn) [compound 121, 4-[7-(2-amino-3-methyl-butoxy)imidazo[1,2-a]pyridin-3-yl]-N-cyclopropyl-2-(difluoromethoxy)-6-methoxy-benzamide] showed an IC50 (SIK1) of 10 to 100 nM, an IC50 (SIK2) of 0.01 to 10 nM and an IC50 (SIK3) of 0.01 to 10 nM.

`COc1cc(-c2cnc3cc(OCCN4CCCC(F)(F)C4)ccn23)cc(OC(F)F)c1C(=O)NC1CC1` [compound 211, N-cyclopropyl-2-(difluoromethoxy)-4-[7-[2-(3,3-difluoro-1-piperidyl)ethoxy]imidazo [1,2-a]pyridin-3-yl]-6-methoxy-benzamide] gave an IC50 (SIK1) of 0.01 to 10 nM, an IC50 (SIK2) of 0.01 to 10 nM and an IC50 (SIK3) of 0.01 to 10 nM.

With `CCN1CCc2cc(-c3cnc4cc(OCCN(C)C)ccn34)cc(OC)c2C1=O` [compound 53, 6-[7-[2-(dimethylamino)ethoxy]imidazo[1,2-a]pyridin-3-yl]-2-ethyl-8-methoxy-3,4-dihydroisoquinolin-1-one] the IC50 (SIK1) was greater than 500 nM, the IC50 (SIK2) was 10 to 100 nM and the IC50 (SIK3) was 10 to 100 nM.

With `COC(=O)NCC(F)(F)COc1ccn2c(-c3cc(OC)c(C(=O)NC4CC4)c(OC(F)F)c3)cnc2c1` [Cpd 365, methyl N-[3-[3-[4-(cyclopropylcarbamoyl)-3-(difluoromethoxy)-5-methoxy-phenyl]imidazo[1,2-a]pyridin-7-yl]oxy-2,2-difluoro-propyl]carbamate] the IC50 (SIK1) was 10 to 100 nM, the IC50 (SIK2) was 0.01 to 10 nM and the IC50 (SIK3) was 0.01 to 10 nM.
